Patent US20200037600A1, “MESOIONIC IMIDAZOPYRIDINES AS INSECTICIDES” (Bayer Aktiengesellschaft, priority 2017, published 2020)
Like-named read-outs stand apart in the source and are kept apart here.

Columns and labels:
[1] = test system: Phaedon cochleariae; experiment: Phaedon cochleariae spray test; type: in vivo; settings: foliar, 168 h, application rate 500 g/ha, larvae on Chinese cabbage leaf discs, after 7 days, read-out: efficacy
Procedure: Phaedon cochleariae—Spray Test
(§1) Solvent: 78.0 parts by weight of acetone • • 1.5 parts by weight of dimethylformamide
(§2) Emulsifier: alkylaryl polyglycol ether
(§3) To produce a suitable active compound formulation, 1 part by weight of active compound is dissolved with the specified parts by weight of solvent and made up to the desired concentration with water containing an emulsifier concentration of 1000 ppm. To produce further test concentrations, the formulation is diluted with emulsifier-containing water.
Discs of Chinese cabbage leaves (Brassica pekinensis) are sprayed with an active compound formulation of the desired concentration and, after drying, populated with larvae of the mustard beetle (Phaedon cochleariae).
After 7 days, the efficacy in % is determined. 100% means that all the beetle larvae have been killed; 0% means that no beetle larvae have been killed.

[2] = test system: Diabrotica balteata; experiment: Diabrotica balteata spray test; type: in vivo; settings: application rate 160 μg/well, beetle larvae on germinated wheat grains, after 7 days; for pest or weed control at 160 µg/disc, 160 µg/well: Diabrotica balteata, 168 h, read-out: efficacy
Procedure: Diabrotica balteata—Spray Test
(§4) Solvent: 78 parts by weight of acetone • • 1.5 parts by weight of dimethylformamide
as §2, §3
Pre-swollen wheat grains (Triticum aestivum) are incubated in a multiwell plate filled with agar and a little water for one day (5 seed grains per well). The germinated wheat grains are sprayed with an active compound preparation of the desired concentration. Subsequently, each cavity is infected with 10-20 beetle larvae of Diabrotica balteata.
After 7 days, the efficacy in % is determined. 100% means that all maize plants have grown as in the untreated, uninfected control; 0% means that no maize plant has grown.

[3] = test system: Myzus persicae; experiment: Myzus persicae spray test; type: in vivo; settings: application rate 500 g/ha, Chinese cabbage leaf discs, after 5 days; for pest or weed control at 500 g/ha: Myzus persicae, foliar, 120 h, read-out: efficacy
Procedure: Myzus persicae—Spray Test
as §4, §2, §3
Discs of Chinese cabbage leaves (Brassica pekinensis) infested by all stages of the green peach aphid (Myzus persicae) are sprayed with an active compound formulation of the desired concentration.
(§5) After 5 days, the efficacy in % is determined. 100% means that all the aphids have been killed; 0% means that no aphids have been killed.

[4] = test system: Myzus persicae; experiment: Myzus persicae oral test; type: in vivo; settings: after 5 days; for pest or weed control at 4 ppm / pest or weed control at 20 ppm: Myzus persicae, po, 120 h, read-out: efficacy
Procedure: Solvent: 100 parts by weight of acetone
To produce a suitable active compound formulation, 1 part by weight of active compound is dissolved with the stated parts by weight of solvent and made up to the desired concentration with water.
50 μl of the active compound formulation are transferred into microtitre plates and made up to a final volume of 200 μl with 150 μl of IPL41 insect medium (33%+15% sugar). Subsequently, the plates are sealed with parafilm, which a mixed population of green peach aphids (Myzus persicae) within a second microtitre plate is able to puncture and imbibe the solution.
as §5

[5] = test system: Spodoptera frugiperda; experiment: Spodoptera frugiperda spray test; type: in vivo; settings: application rate 500 g/ha; caterpillars on maize leaf discs; after 7 days
Procedure: Spodoptera frugiperda—Spray Test
as §1, §2, §3
Leaf discs of maize (Zea mays) are sprayed with an active compound formulation of the desired concentration and, after drying, populated with caterpillars of the fall armyworm (Spodoptera frugiperda).
After 7 days, the efficacy in % is determined. 100% means that all the caterpillars have been killed; 0% means that no caterpillar has been killed.

[6] = test system: Lucilia cuprina; experiment: Lucilia cuprina test; type: in vivo; settings: application rate 100 ppm; L1 larvae; after 2 days
Procedure: (§6) Solvent: dimethyl sulfoxide
(§7) To produce a suitable active compound formulation, 10 mg of active compound are mixed with 0.5 ml of dimethyl sulfoxide, and the concentrate is diluted with water to the desired concentration.
About 20 L1 larvae of the Australian sheep blowfly (Lucilia cuprina) are transferred into a test vessel containing minced horsemeat and the active compound formulation of the desired concentration.
After 2 days, the kill in % is determined. 100% means that all the larvae have been killed; 0% means that no larvae have been killed.

[7] = log P by HPLC (EEC directive 79/831 Annex V.A8); type: physicochemical
Procedure: The log P values reported in the tables and preparation examples above were determined in accordance with EEC directive 79/831 Annex V.A8 by HPLC (High Performance Liquid Chromatography) using a reversed-phase column (C18). Temperature 43° C. The calibration is effected with unbranched alkan-2-ones (having 3 to 16 carbon atoms), for which the log P values are known.

[8] = test system: Musca domestica; experiment: Musca domestica test; type: in vivo; settings: application rate 100 ppm; adult houseflies; after 2 days
Procedure: as §6, §7
Vessels containing a sponge treated with sugar solution and the active compound formulation of the desired concentration are populated with 10 adult houseflies (Musca domestica).
After 2 days, the kill in % is determined. 100% means that all of the flies have been killed; 0% means that none of the flies have been killed.

[9] = test system: Ctenocephalides felis; experiment: Ctenocephalides felis in vitro contact test with adult cat fleas; type: in vivo; settings: application rate 5 μg/cm^2 (=500 g/ha), after 48 h
Procedure: Ctenocephalides felis—In Vitro Contact Tests with Adult Cat Fleas
For the coating of the test tubes, 9 mg of active compound are first dissolved in 1 ml of acetone p.a. and then diluted to the desired concentration with acetone p.a. 250 μl of the solution are distributed homogeneously on the inner walls and the base of a 25 ml glass tube by turning and rocking on an orbital shaker (rocking rotation at 30 rpm for 2 h). With 900 ppm of active compound solution and internal surface area 44.7 cm^2, given homogeneous distribution, an area-based dose of 5 μg/cm^2 is achieved.
After the solvent has evaporated off, the tubes are populated with 5-10 adult cat fleas (Ctenocephalides felis), sealed with a perforated plastic lid and incubated in a horizontal position at room temperature and ambient humidity. After 48 h, efficacy is determined. To this end, the tubes are stood upright and the fleas are knocked to the base of the tube. Fleas which remain motionless at the base or move in an uncoordinated manner are considered to be dead or moribund.
100% efficacy means that all the fleas were dead or moribund. 0% efficacy means that no fleas were harmed.

| Compound | pest or weed control at 500 g/ha [1] [%] | pest or weed control at 160 µg/disc, 160 µg/well [2] [%] | pest or weed control at 500 g/ha [3] [%] | pest or weed control at 4 ppm ([4]; application rate 4 ppm) [%] | chromatographic logP [7] | further results |
| --- | --- | --- | --- | --- | --- | --- |
| CC(=O)c1c([O-])[n+]2cccc(C)c2n1Cc1cnc(Cl)s1 [Example I-044] | 83 | 100 | 100 | 100 |  |  |
| Cc1ccc[n+]2c([O-])c(C(=O)C(F)(F)C(F)F)n(Cc3cnc(Cl)s3)c12 [Example I-063] | 100 |  |  | 100 |  | efficacy [5]: 100% |
| COC(=O)C(=O)c1c([O-])[n+]2cccc(C)c2n1Cc1cnc(Cl)s1 [Example I-045] | 100 | 100 | 100 | 100 |  | efficacy (kill in %) [6]: 90% |
| O=C(OCC1CC1)C(=O)c1c([O-])[n+]2ccccc2n1Cc1cnc(Cl)s1 [Example I-034, 1-[(2-chlorothiazol-5-yl)methyl]-2-[2-(cyclopropylmethoxy)-2-oxoacetyl]imidazo[1,2-a]pyridin-4-ium-3-olate] |  |  | 90 | 100 |  | chromatographic logP ([7]; HPLC, reversed-phase column (C18), 43° C, acidic (HCOOH), read-out: log P (HCOOH)): 1.94; efficacy (kill in %) [8]: 100% |
| O=C(c1cccc(C(F)(F)F)c1)c1c([O-])[n+]2ccccc2n1Cc1cnc(Cl)s1 [Example I-023] |  |  |  |  |  | efficacy [2]: 100%; efficacy (kill in %) [6]: 95%; efficacy [3]: 90%; efficacy ([4]; application rate 4 ppm): 100% |
| O=C(c1cccs1)c1c([O-])[n+]2ccccc2n1Cc1cnc(Cl)s1 [Example I-026] |  |  |  |  |  | efficacy [2]: 100%; efficacy (kill in %) [6]: 100%; efficacy ([4]; application rate 4 ppm): 100% |
| CO/N=C/C(=O)c1c([O-])[n+]2ccccc2n1Cc1cnc(Cl)s1 [Example I-059, 1-[(2-chlorothiazol-5-yl)methyl]-2-[(2E)-2-methoxyiminoacetyl]imidazo[1,2-a]pyridin-4-ium-3-olate] |  | 100 | 70 | 100 | 1.45 |  |
| O=C(c1ccccc1)c1c([O-])[n+]2ccccc2n1Cc1cnc(Cl)s1 [Example I-013] |  |  |  |  |  | efficacy [2]: 80%; efficacy (kill in %) [8]: 90%; efficacy [3]: 100%; efficacy ([4]; application rate 4 ppm): 100%; efficacy ([4]; application rate 20 ppm): 100%; efficacy [9]: 100% |
| O=C(CCl)c1c([O-])[n+]2ccccc2n1Cc1cnc(Cl)s1 [Example I-005, 2-(2-Chloroacetyl)-1-[(2-chlorothiazol-5-yl)methyl]imidazo[1,2-a]pyridin-4-ium-3-olate] |  | 80 |  | 100 | 1.58 | pest or weed control at 20 ppm ([4]; application rate 20 ppm): 100% |
| O=C(OC1CCC1)C(=O)c1c([O-])[n+]2ccccc2n1Cc1cnc(Cl)s1 [Example I-035] |  |  |  |  |  | efficacy (kill in %) [8]: 100%; efficacy [3]: 100%; efficacy ([4]; application rate 4 ppm): 100% |
| O=Cc1c([O-])[n+]2ccccc2n1Cc1cnc(Cl)s1 [Example I-015, 1-[(2-Chlorothiazol-5-yl)methyl]-2-formylimidazo[1,2-a]pyridin-4-ium-3-olate] |  | 100 | 90 | 100 | 1.01 | efficacy [9]: 100% |
| O=C(c1c([O-])[n+]2ccccc2n1Cc1cnc(Cl)s1)C(Cl)(Cl)Cl [Example I-011, 1-[(2-Chlorothiazol-5-yl)methyl]-2-(2,2,2-trichloroacetyl)imidazo[1,2-a]pyridin-4-ium-3-olate] |  | 100 | 90 | 100 | 2.44 | efficacy [5]: 100% |
| Cc1ccc[n+]2c([O-])c(C(=O)C(F)(F)C(F)(F)F)n(Cc3cnc(Cl)s3)c12 [Example I-062] | 100 |  | 90 | 100 |  |  |
| COCC(=O)c1c([O-])[n+]2ccccc2n1Cc1cnc(Cl)s1 [Example I-010, 1-[(2-Chlorothiazol-5-yl)methyl]-2-(2-methoxyacetyl)imidazo[1,2-a]pyridin-4-ium-3-olate] |  | 100 | 100 | 100 | 1.13 | pest or weed control at 20 ppm ([4]; application rate 20 ppm): 100% |
| CCNC(=O)c1c([O-])[n+]2ccccc2n1Cc1cnc(Cl)s1 [Example I-018] |  |  |  |  |  | efficacy [2]: 100%; efficacy (kill in %) [8]: 85%; efficacy (kill in %) [6]: 100%; efficacy [3]: 100%; efficacy ([4]; application rate 4 ppm): 100%; efficacy ([4]; application rate 20 ppm): 100% |
| CC(C)NC(=O)c1c([O-])[n+]2ccccc2n1Cc1cnc(Cl)s1 [Example I-025, 1-[(2-Chlorothiazol-5-yl)methyl]-2-(isopropylcarbamoyl)imidazo[1,2-a]pyridin-4-ium-3-olate] |  |  |  | 100 | 1.66 | efficacy (kill in %) [8]: 100% |
| Cc1ccc[n+]2c([O-])c(C(=O)C(F)(F)Cl)n(Cc3cnc(Cl)s3)c12 [Example I-060] | 100 |  |  |  |  | efficacy [5]: 100% |
| Cc1ccc[n+]2c([O-])c(C(=O)C(=O)OC3CCC3)n(Cc3cnc(Cl)s3)c12 [Example I-065] | 100 |  | 90 | 100 |  |  |
